Source: US20100137368A1, “PYRIDINE DERIVATIVES AS FAST DI[…] 2 RECEPTOR ANTAGONISTS” (JANSSEN PHARMACEUTICA N.V., priority 2007, published 2010)
Where a name gives a salt, the structure may show the parent alone.

Structure (SMILES) | melting point [°C]
N#Cc1ccc(NC2CCN(Cc3cc(F)c(F)c(F)c3)CC2)nc1 | 129.5
Fc1ccc(CN2CCC(Nc3ccc(C(F)(F)F)cn3)CC2)cc1F (as salt: hydrochloric acid salt) | 268.7
N#Cc1ccc(NC2CCN(Cc3cccc(C(F)(F)F)c3)CC2)nc1 | 111.6
N#Cc1cccc(NC2CCN(Cc3cc(F)cc(C(F)(F)F)c3)CC2)n1 | 115.2
N#Cc1ccc(NC2CCN(Cc3cc(F)cc(F)c3)CC2)nc1 | 102.6
N#Cc1ccc(NC2CCN(Cc3cc(F)cc(C(F)(F)F)c3)CC2)nc1 | 198.8
